Assay results published in patent publication US7091038B2, “Ecdysone receptor-based inducible gene expression system” (RheoGene, Inc., priority 2000, dated 2006).

Legend:
GAL4RXR + VP16CfEcR [1] = assay: Transactivation of reporter gene through switch 1.3 in 3T3 cells
Text: In various cellular backgrounds, including mammalian cells, insect ecdysone receptor (EcR) heterodimerizes with retinoid X receptor (RXR) and, upon binding of ligand, transactivates genes under the control of ecdysone response elements. […] The prepared receptor constructs comprise a ligand binding domain of EcR and of RXR or of USP; a DNA binding domain of GAL4 or of EcR; and an activation domain of VP16. The reporter constructs include a reporter gene, luciferase or LacZ, operably linked to a synthetic promoter construct that comprises either GAL4 or EcR/USP binding sites (response elements). Various combinations of these receptor and reporter constructs were cotransfected into CHO, NIH3T3, CV1 and 293 cells.
The same procedures described for CHO cells were followed for 3T3 cells as well with two modifications. The cells were plated when they reached 50% confluency. 125,000 or 50,000 or 25,000 cells were plated per well of 6- or 12- or 24-well plates respectively. […] The ligand treatments were performed as described in the CHO cell section above.

CfVgRXR + MmRXR [2] = assay: Transactivation of reporter gene through switch 1.9 in CV1 cells; type: cell-based, Choristoneura fumiferana; Mus musculus; details: switch 1.9, pIND(SP1)LacZ
Procedure: (§1) This example was prepared in the same way as switch 1.8 except DmEcR was replaced with a truncated CfEcR comprising a partial A/B domain and the complete CDEF domains [SEQ ID NO: 70 (polynucleotide) and SEQ ID NO: 71 (polypeptide)].
(§2) The cells were harvested and reporter activity was assayed.
(§3) The cells were plated when they reached 50% confluency.
(§4) The same procedures described for NIH3T3 cells were followed for CV1 cells
(§5) Cells were harvested 24–48 hr after adding ligands. […] Twenty μl of lysate was assayed.

DmVgRXR + MmRXR [3] = target: T1, DmVgRXR + MmRXR (Drosophila melanogaster, UniProt P34021, E282G/G283S/G286V); assay: Transactivation of reporter gene through switch 1.8 in CHO cells; type: cell-based, Drosophila melanogaster; Mus musculus; set-up: host or cells: CHO, NIH3T3, 293 or CV1 cells; details: switch 1.8, pIND(SP1)LacZ
Text: (§6) This system was purchased from Invitrogen Corp., Carlsbad, California. It comprises a Drosophila melanogaster EcR (“DmEcR”) with a modified DNABD fused to VP16AD and placed under the control of a CMV promoter (SEQ ID NO: 68). Full length MmRXR (SEQ ID NO: 62) was placed under the control of the RSV promoter (SEQ ID NO: 69). The reporter, pIND(SP1)LacZ, contains five copies of a modified ecdysone response element (“EcRE”, E/GRE), three copies of an SPI enhancer, and a minimal heat shock promoter, all of which were placed upstream to the LacZ reporter gene.
as §2, §5

GAL4CfEcRVP16 [4] = assay: Transactivation of reporter gene through switch 1.6 in CV1 cells; type: cell-based, Choristoneura fumiferana; details: switch 1.6, pGAL4RELuc
Procedure: (§7) This construct was prepared so that both the GAL4 DNABD and the VP16AD were placed on the same molecule. GAL4DNABD (SEQ ID NO: 43) and VP16AD (SEQ ID NO: 49) were fused to CfEcRDEF (SEQ ID NO: 3) at N-and C-termini respectively.
as §2, §3, §4, §5

GAL4RXR + VP16CfEcR [5] = assay: Transactivation of reporter gene through switch 1.3 in CV1 cells; type: cell-based, Mus musculus; Choristoneura fumiferana; details: switch 1.3, pGAL4RELuc
Procedure: as §2, §3, §4, §5

DmVgRXR + MmRXR [6] = target: T1, DmVgRXR + MmRXR; assay: Transactivation of reporter gene through switch 1.8 in CV1 cells; type: cell-based, Drosophila melanogaster; Mus musculus; set-up: host or cells: CHO, NIH3T3, 293 or CV1 cells; details: switch 1.8, pIND(SP1)LacZ
Text: as §6, §2, §3, §4, §5

CfVgRXR + MmRXR [7] = assay: Transactivation of reporter gene through switch 1.9 in 3T3 cells; type: cell-based, Choristoneura fumiferana; Mus musculus; details: switch 1.9, pIND(SP1)LacZ
Procedure: as §1, §2, §3, §5

DmVgRXR + MmRXR [8] = target: T1, DmVgRXR + MmRXR; assay: Transactivation of reporter gene through switch 1.8 in 3T3 cells; type: cell-based, Drosophila melanogaster; Mus musculus; details: switch 1.8, pIND(SP1)LacZ
GAL4EcR + VP16USP [9] = assay: Transactivation of reporter gene through switch 1.2 in 293 cells; type: cell-based, Choristoneura fumiferana; details: switch 1.2, pGAL4RELuc
Procedure: (§8) This construct was prepared in the same way as in switch 1.1 above except MmRXRDEF was replaced with the D, E and F domains from spruce budworm USP (“CfUSPDEF”; SEQ ID NO: 67). The constructs used in this example are similar to those disclosed in U.S. Pat. No. 5,880,333 except that Choristoneura fumiferana USP rather than Drosophila melanogaster USP was utilized.
as §2
(§9) The same procedures described for CHO were followed for 293 cells except that the cells were plated in biocoated plates to avoid clumping.
as §5

GAL4USP + VP16CfEcR = assay: Transactivation of reporter gene through switch 1.5 in CV1 cells; type: cell-based, Choristoneura fumiferana; details: switch 1.5, pGAL4RELuc
Procedure: This construct was prepared in the same way as switch 1.3 except MmRXRDEF was replaced with CfUSPDEF (SEQ ID NO: 67).
as §2, §3, §4, §5

GAL4RXR + VP16CfEcR [10] = assay: Transactivation of reporter gene through switch 1.3 in 293 cells; type: cell-based, Mus musculus; Choristoneura fumiferana; details: switch 1.3, pGAL4RELuc
Procedure: as §2, §9, §5

DmVgRXR + MmRXR [11] = target: T1, DmVgRXR + MmRXR; assay: Transactivation of reporter gene through switch 1.8 in 293 cells; type: cell-based, Drosophila melanogaster; Mus musculus; set-up: host or cells: CHO, NIH3T3, 293 or CV1 cells; details: switch 1.8, pIND(SP1)LacZ
Text: as §6, §2, §9, §5

GAL4CfEcRVP16 [12] = assay: Transactivation of reporter gene through switch 1.6 in 3T3 cells; type: cell-based, Choristoneura fumiferana; details: switch 1.6, pGAL4RELuc
Procedure: as §7, §2, §3, §5

CfVgRXR [13] = assay: Transactivation of reporter gene through switch 1.10 in 293 cells; type: cell-based, Choristoneura fumiferana; details: switch 1.10, pIND(SP1)LacZ
Procedure: (§10) This example was prepared in the same way as switch 1.9 except MmRXR (SEQ ID NO: 62) was deleted.
as §2, §9, §5

GAL4EcR + VP16USP [14] = assay: Transactivation of reporter gene through switch 1.2 in CHO cells; type: cell-based, Choristoneura fumiferana; details: switch 1.2, pGAL4RELuc
Procedure: as §8, §2, §5

CfVgRXR [15] = assay: Transactivation of reporter gene through switch 1.10 in CHO cells; type: cell-based, Choristoneura fumiferana; details: switch 1.10, pIND(SP1)LacZ
Procedure: as §10, §2, §5

GAL4CfEcRVP16 [16] = assay: Transactivation of reporter gene through switch 1.6 in CHO cells; type: cell-based, Choristoneura fumiferana; details: switch 1.6, pGAL4RELuc
Procedure: as §7, §2, §5

T1 sequence (P28700 whole entry, the tested form may be a part): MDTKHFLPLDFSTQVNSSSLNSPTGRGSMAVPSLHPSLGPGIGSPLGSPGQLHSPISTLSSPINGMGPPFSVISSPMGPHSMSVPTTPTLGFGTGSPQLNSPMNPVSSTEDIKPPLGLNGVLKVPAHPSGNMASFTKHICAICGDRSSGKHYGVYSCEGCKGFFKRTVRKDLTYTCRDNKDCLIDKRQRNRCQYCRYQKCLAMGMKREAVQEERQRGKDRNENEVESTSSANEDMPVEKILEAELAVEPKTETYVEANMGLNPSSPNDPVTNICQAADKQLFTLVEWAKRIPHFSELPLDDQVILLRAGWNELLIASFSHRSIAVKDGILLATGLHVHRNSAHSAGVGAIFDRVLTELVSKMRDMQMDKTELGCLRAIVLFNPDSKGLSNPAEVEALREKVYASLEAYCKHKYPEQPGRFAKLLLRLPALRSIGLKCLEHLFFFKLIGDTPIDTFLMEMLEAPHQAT
T1 sequence (P34021 whole entry E282G/G283S/G286V, the tested form may be a part): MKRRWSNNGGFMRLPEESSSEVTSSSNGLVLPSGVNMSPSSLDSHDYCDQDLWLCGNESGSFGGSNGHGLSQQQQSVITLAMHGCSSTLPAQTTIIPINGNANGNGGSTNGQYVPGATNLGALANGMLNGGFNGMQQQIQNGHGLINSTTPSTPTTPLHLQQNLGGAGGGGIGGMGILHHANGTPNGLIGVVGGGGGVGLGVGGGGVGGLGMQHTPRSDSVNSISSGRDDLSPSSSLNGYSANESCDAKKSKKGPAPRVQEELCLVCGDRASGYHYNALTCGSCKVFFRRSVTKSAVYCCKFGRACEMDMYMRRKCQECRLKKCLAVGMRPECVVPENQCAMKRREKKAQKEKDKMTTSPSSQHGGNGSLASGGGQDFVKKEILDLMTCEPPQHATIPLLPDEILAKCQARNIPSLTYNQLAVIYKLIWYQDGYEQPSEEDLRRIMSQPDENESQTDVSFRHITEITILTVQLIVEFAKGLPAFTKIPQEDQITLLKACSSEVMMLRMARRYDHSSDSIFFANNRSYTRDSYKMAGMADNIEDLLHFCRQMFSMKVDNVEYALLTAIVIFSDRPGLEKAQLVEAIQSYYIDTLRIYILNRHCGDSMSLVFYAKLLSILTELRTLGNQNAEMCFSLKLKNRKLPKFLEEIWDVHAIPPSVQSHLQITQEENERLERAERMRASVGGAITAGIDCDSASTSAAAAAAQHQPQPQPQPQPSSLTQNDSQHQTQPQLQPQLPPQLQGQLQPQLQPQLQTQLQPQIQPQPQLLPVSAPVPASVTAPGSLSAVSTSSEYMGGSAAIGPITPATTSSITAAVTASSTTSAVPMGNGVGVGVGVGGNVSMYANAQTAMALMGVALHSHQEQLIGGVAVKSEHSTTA

CCc1c(OC)cccc1C(=O)NN(C(=O)c1cc(C)cc(C)c1)C(C)(C)C [N-(2-ethyl-3-methoxybenzoyl)-N′-(3,5-dimethylbenzoyl)-N′-t-butylhydrazine]
Mean Fold Induction at 1.0 μM Concentration (GAL4RXR + VP16CfEcR [1]; GAL4MmRXRDEF/VP16CfEcRCDEF (switch 1.3), 1.0 μM ligand): 71 fold
Mean Fold Activation Through N-(2-ethyl-3-methoxybenzoyl)-N′-(3,5-dimethylbenzoyl)-N′-t-butylhydrazine (GAL4RXR + VP16CfEcR [1]; switch 1.3, pGAL4RELuc): 47 fold
Mean Fold Activation Through N-(2-ethyl-3-methoxybenzoyl)-N′-(3,5-dimethylbenzoyl)-N′-t-butylhydrazine (CfVgRXR + MmRXR [2]): 7 fold
Mean Fold Activation with 50 μM N-(2-ethyl-3-methoxybenzoyl)-N′-(3,5-dimethylbenzoyl)-N′-t-butylhydrazine (DmVgRXR + MmRXR [3]): 14 fold
Mean Fold Activation Through N-(2-ethyl-3-methoxybenzoyl)-N′-(3,5-dimethylbenzoyl)-N′-t-butylhydrazine (GAL4CfEcRVP16 [4]): 6 fold
Mean Fold Activation Through N-(2-ethyl-3-methoxybenzoyl)-N′-(3,5-dimethylbenzoyl)-N′-t-butylhydrazine (GAL4RXR + VP16CfEcR [5]): 25 fold
Mean Fold Activation Through N-(2-ethyl-3-methoxybenzoyl)-N′-(3,5-dimethylbenzoyl)-N′-t-butylhydrazine (DmVgRXR + MmRXR [6]): 12 fold
Mean Fold Activation Through N-(2-ethyl-3-methoxybenzoyl)-N′-(3,5-dimethylbenzoyl)-N′-t-butylhydrazine (CfVgRXR + MmRXR [7]): 19 fold
Mean Fold Activation Through N-(2-ethyl-3-methoxybenzoyl)-N′-(3,5-dimethylbenzoyl)-N′-t-butylhydrazine (DmVgRXR + MmRXR [8]): 21 fold
Mean Fold Activation Through N-(2-ethyl-3-methoxybenzoyl)-N′-(3,5-dimethylbenzoyl)-N′-t-butylhydrazine (GAL4EcR + VP16USP [9]): 2 fold
Mean Fold Activation Through N-(2-ethyl-3-methoxybenzoyl)-N′-(3,5-dimethylbenzoyl)-N′-t-butylhydrazine (GAL4USP + VP16CfEcR): 3 fold
Mean Fold Activation Through N-(2-ethyl-3-methoxybenzoyl)-N′-(3,5-dimethylbenzoyl)-N′-t-butylhydrazine (GAL4RXR + VP16CfEcR [10]): 17 fold
Mean Fold Activation Through N-(2-ethyl-3-methoxybenzoyl)-N′-(3,5-dimethylbenzoyl)-N′-t-butylhydrazine (DmVgRXR + MmRXR [11]): 21 fold
Mean Fold Activation Through N-(2-ethyl-3-methoxybenzoyl)-N′-(3,5-dimethylbenzoyl)-N′-t-butylhydrazine (GAL4CfEcRVP16 [12]): 7 fold
Mean Fold Activation Through N-(2-ethyl-3-methoxybenzoyl)-N′-(3,5-dimethylbenzoyl)-N′-t-butylhydrazine (CfVgRXR [13]): 3 fold
Mean Fold Activation with 50 μM N-(2-ethyl-3-methoxybenzoyl)-N′-(3,5-dimethylbenzoyl)-N′-t-butylhydrazine (GAL4EcR + VP16USP [14]): 2 fold
Mean Fold Activation with 50 μM N-(2-ethyl-3-methoxybenzoyl)-N′-(3,5-dimethylbenzoyl)-N′-t-butylhydrazine (CfVgRXR [15]): 29 fold
Mean Fold Activation with 50 μM N-(2-ethyl-3-methoxybenzoyl)-N′-(3,5-dimethylbenzoyl)-N′-t-butylhydrazine (GAL4CfEcRVP16 [16]): 9 fold
